Patent US8623326B2 (University of Western Ontario, priority 2008, dated 2014)
Where a SMILES comes first, the peptide text is derived from it. [ ]: non-standard residue; d: D form. The star is where a group is joined. Dap = NC[C@H](N)C(=O)O; X1 = O=C(CCCCCF)*

Biological target: T1, GHSR (Homo sapiens, UniProt Q92847)
T1 construct: expressed in transfected cells; host or cells: CHO-K1
Assay: Radioligand binding assay (125I-ghrelin displacement)
Settings: 125I-ghrelin (human) radioligand; for IC50: read-out: IC50 (nM), binding affinity of fluorine bearing ghrelin analogues, human recombinant CHO-K1 cells as receptor source, 18a-c semi-quantitative from % inhibition at 10^-5 to 10^-8 M, duplicated
Description: Radioligand Binding Assay.
IC50 values were determined by a non-linear, least squares regression analysis using MathIQ™ (ID Business Solutions Ltd., UK).

T1 sequence (Q92847 whole entry): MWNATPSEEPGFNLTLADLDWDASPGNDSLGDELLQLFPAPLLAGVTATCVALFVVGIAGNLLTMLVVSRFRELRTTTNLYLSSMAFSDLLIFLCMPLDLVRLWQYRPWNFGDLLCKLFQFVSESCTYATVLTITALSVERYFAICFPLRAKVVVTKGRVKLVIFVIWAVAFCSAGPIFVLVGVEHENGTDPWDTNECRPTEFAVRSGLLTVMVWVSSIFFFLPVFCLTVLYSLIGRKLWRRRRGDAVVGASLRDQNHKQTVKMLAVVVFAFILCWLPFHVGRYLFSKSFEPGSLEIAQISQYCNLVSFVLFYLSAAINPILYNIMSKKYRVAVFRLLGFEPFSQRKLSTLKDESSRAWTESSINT

SMILES | inhibition at 2 µM (at 2000 nM) | IC50
CC(C)C[C@H](NC(=O)[C@H](Cc1ccccc1)NC(=O)[C@H](CNC(=O)CCCCCF)NC(=O)[C@H](CO)NC(=O)CN)C(N)=O [Cmpd 17, Ghrelin(1-5)-6C—F] (H-GS[Dap](X1)FL-NH2) | ~20% | 
CC(C)C[C@H](NC(=O)[C@H](Cc1ccccc1)NC(=O)[C@H](CNC(=O)CCCCCF)NC(=O)[C@H](CO)NC(=O)CN)C(=O)N[C@@H](CO)C(=O)N1CCC[C@H]1C(=O)N[C@@H](CCC(=O)O)C(=O)N[C@@H](Cc1c[nH]cn1)C(=O)N[C@@H](CCC(N)=O)C(=O)N[C@@H](CCCNC(=N)N)C(=O)N[C@H](C(=O)N[C@@H](CCC(N)=O)C(=O)N[C@@H](CCC(N)=O)C(N)=O)C(C)C [Cmpd 18a, Ghrelin(1-14)-6C—F] |  | 147 nM
CC(C)C[C@H](NC(=O)[C@H](Cc1ccccc1)NC(=O)[C@H](CNC(=O)CCCCCCCCF)NC(=O)[C@H](CO)NC(=O)CN)C(=O)N[C@@H](CO)C(=O)N1CCC[C@H]1C(=O)N[C@@H](CCC(=O)O)C(=O)N[C@@H](Cc1c[nH]cn1)C(=O)N[C@@H](CCC(N)=O)C(=O)N[C@@H](CCCNC(=N)N)C(=O)N[C@H](C(=O)N[C@@H](CCC(N)=O)C(=O)N[C@@H](CCC(N)=O)C(N)=O)C(C)C [Cmpd 18b, Ghrelin(1-14)-9C—F] |  | 39.6 nM
CC(C)C[C@H](NC(=O)[C@H](Cc1ccccc1)NC(=O)[C@H](CNC(=O)CCCCCCCCCCCF)NC(=O)[C@H](CO)NC(=O)CN)C(=O)N[C@@H](CO)C(=O)N1CCC[C@H]1C(=O)N[C@@H](CCC(=O)O)C(=O)N[C@@H](Cc1c[nH]cn1)C(=O)N[C@@H](CCC(N)=O)C(=O)N[C@@H](CCCNC(=N)N)C(=O)N[C@H](C(=O)N[C@@H](CCC(N)=O)C(=O)N[C@@H](CCC(N)=O)C(N)=O)C(C)C [Cmpd 18c, Ghrelin(1-14)-12C—F] |  | 27.9 nM
